We go through 17 compounds from US11279686B2, “Nrf2 activating compounds and uses thereof” (Rigel Pharmaceuticals, Inc., priority 2016, dated 2022).

Structures can show the parent of a compound that is named as a salt.

The test system of the first assay is experimental autoimmune encephalomyelitis (EAE). Nature of the assay: Experimental autoimmune encephalomyelitis (EAE) animal model. It counts as in vivo, C57BL/6 mice. The settings on record: dosed at 60 mg/kg beginning on the day of immunization.
Take `COC(=O)/C=C/n1nn[nH]c1=O` [methyl (E)-3-(5-oxo-4,5-dihydro-1H-tetrazol-1-yl)acrylate]: the “onset of disease paralysis” value was “significantly prevents”.

Test system in a further assay: not listed separately
Description: Glutathione depletion assay (Michael reaction with reduced glutathione followed by 1H NMR). Particulars: 2 equiv. reduced glutathione, d6-DMSO, 35° C. The text has this: See, for example, Lehmann et al. Dimethyfumarate Induces Immunosuppression via Glutathione Depletion and Subsequent Induction of Heme Oxygenase 1, Journal of Investigative Dermatology (2007) 127, 835-845. Accordingly, the present compounds may be assessed in vitro by reaction with glutathione as follows:
(with the top securely fastened).
In all the above cases, dis-appearance of the alkene proton signals from the starting material are used to determine the extent of Michael reaction with glutathione.
As would be understood by those of skill in the art, the above experiments can be repeated by varying the equivalents of reduced glutathione (0.5 to 2 equivalents); the reactions can also be run in a mixture of d6-DMSO and D2O; and the temperature of the reaction can also be varied from room temperature to 35° C. (35° C. being used to mimic body temperature). As used herein “majority reaction” means a greater than 50% reduction in alkene proton signal as observed by ^1H NMR.
Consider `COC(=O)/C=C/n1nnn(C)c1=O` [methyl (E)-3-(4-methyl-5-oxo-4,5-dihydro-1H-tetrazol-1-yl)acrylate], for which the “time to majority reaction with glutathione (greater than 50% reduction in alkene proton signal by 1H NMR)” value was ≤ 30 h.
The same measure, in the same setting: as for `COC(=O)/C=C/n1nn[nH]c1=O` [methyl (E)-3-(5-oxo-4,5-dihydro-1H-tetrazol-1-yl)acrylate], the figure is ≤ 30 h.

The subject of another assay is NrF2 (Nuclear factor (erythroid-derived 2)-like 2). Description: NrF2 activation in a whole cell nuclear translocation assay. It is filed as cell-based. The settings on record: read-out: NrF2 translocation assay EC50; whole cell nuclear translocation; Table 2. On the procedure: NrF2 Activation in a Whole Cell Nuclear Translocation Assay
Compounds were tested in a NrF2 (Nuclear factor (erythroid-derived 2)-like 2) translocation assay by adapting the methods set forth in U.S. Pat. No. 8,101,373, the disclosure of which is incorporated herein by reference.
Take `CS(=O)(=O)/C=C/n1nnn(-c2cccnc2)c1=O` [Compound 3, (E)-1-(2-(methylsulfonyl)vinyl)-4-(pyridin-3-yl)-1,4-dihydro-5H-tetrazol-5-one]: the EC50 (usually the midpoint of the concentration-response curve) stood at 120 nM.
On the same count and under the same terms, as for `CS(=O)(=O)/C=C/C(=O)O` [Compound 15, (E)-3-(methylsulfonyl)acrylic Acid], the figure is 44800 nM.

The assay is the same for the next values; noted with them: reference fumarates; read-out: NrF2 activation EC50.
In the case of `COC(=O)/C=C/C(=O)O` [Monomethyl fumarate, reference compound], the EC50 is ~127000 nM.
The same measure, in the same setting: as for `COC(=O)/C=C/C(=O)OC` [dimethyl fumarate, reference compound], the figure is ~7900 nM.

The same assay, now with this note: whole cell nuclear translocation; Table 2; read-out: NrF2 translocation assay EC50.
For the compound `Cc1ccc(S(=O)(=O)/C=C/n2nnn(-c3cccnc3)c2=O)cc1` [Compound 1, (E)-1-(pyridin-3-yl)-4-(2-tosylvinyl)-1,4-dihydro-5H-tetrazol-5-one], the EC50 was 290 nM.
The same measure, in the same setting: for `COC(=O)/C=C/S(=O)(=O)c1ccc(NC(C)=O)cc1` [Compound 4] the value was 750 nM; for `COC(=O)/C=C/S(C)(=O)=O` [Compound 5], 1000 nM; for `COC(=O)/C=C\S(=O)(=O)c1ccc(F)cc1` [Compound 6], 790 nM.
The same measure, in the same setting: for `CCOC(=O)/C=C/S(=O)(=O)c1ccccc1` [Compound 7] the value was < 390 nM; for `COC(=O)/C=C/S(=O)(=O)c1ccc(Br)cc1` [Compound 8], < 390 nM; for `COC(=O)/C=C/S(=O)(=O)c1ccc2ccccc2c1` [Compound 9], < 390 nM.
Same read-out and setting: as for `CCn1nnn(/C=C/S(=O)(=O)c2ccc(C)cc2)c1=O` [Compound 16, (E)-1-ethyl-4-(2-tosylvinyl)-1,4-dihydro-5H-tetrazol-5-one], the figure is 190 nM.
For the compound `Cc1ccc(S(=O)(=O)/C=C/n2nnn(Cc3ccccc3)c2=O)cc1` [Compound 17, (E)-1-benzyl-4-(2-tosylvinyl)-1,4-dihydro-5H-tetrazol-5-one], the EC50 came out at 170 nM.
In the case of `Cn1nnn(/C=C/S(=O)(=O)c2ccc(F)cc2)c1=O` [Compound 18, (E)-1-(2-((4-fluorophenyl)sulfonyl)vinyl)-4-methyl-1,4-dihydro-5H-tetrazol-5-one], the 50% effective concentration (EC50) is 200 nM.
`O=c1n(/C=C/S(=O)(=O)c2ccc(F)cc2)nnn1-c1cccnc1` [Compound 19, (E)-1-(2-((4-fluorophenyl)sulfonyl)vinyl)-4-(pyridin-3-yl)-1,4-dihydro-5H-tetrazol-5-one]: the EC50 was 30 nM.
